In patent publication US20040259926A1, “3-Aryloxy and 3-heteroaryloxy substituted benzo[b]thiophenes as therapeutic agents” (priority 2003, published 2004) one finds IC50 data, which are given here for 23 compounds.

The term IC50 denotes the concentration at which inhibition is half-maximal.

This assay addresses T1, PI3Kγ (recombinant p101/p110γ protein) (Homo sapiens, UniProt P48736).
T1 construct: HA; made in house; host or cells: Spodoptera frugiperda (Sf9) cells, baculovirus co-infection
Description: PI3Kγ In Vitro Kinase Assay. The class given is biochemical. The conditions noted are these: purified recombinant p101/p110γ with G protein β1/γ2 subunits; 20 μM ATP, [γ-32P-ATP]; 25 μM PIP2 lipid micelles; 20 minutes at room temperature. How it is done:
Spodtera frugiperda cells, grown in ESF921 media, were coinfected with baculovirus expressing a glu-tagged […] and baculovirus expressing an HA-tagged p110γ, at a 3:1 ratio of p101 baculovirus to p110γ baculovirus. Sf9 cells were grown to 1×10^7 total cells/mL in 10 L bioreactors and harvested 48-72 hours post infection. Samples of infected cells were then tested for expression of p101/p110γ PI3 kinase by immunoprecipitation and Western Blot analysis methods (see below).
To purify PI3Kγ, 4 volumes of room temperature hypotonic lysis buffer (1 mM MgCl2, 1 mM DTT, 5 mM EGTA, 1 mM Pefabloc, 0.5 μM aprotinin, 5 μM leupeptin, 2 μM pepstatin, 5 μM E64, pH 8) per gram of cell paste, was poured onto frozen cell pellets with stirring, then lysed in a nitrogen “bomb” at 400 psi (599 HC T316, Parr Instrument Co, Moline, Ill.). NaCl was added to 150 mM, and sodium cholate was added to 1% and mixed for another 45 minutes. The lysates were clarified by centrifugation for 25 minutes at 14,000 rpm. The lysates were then loaded over anti-glu-linked Protein-G Sepaharose beads (Covance Research Products, Richmond, Calif.) using 20 mL resin/50 g cell paste. The column was washed with 15 volumes of wash buffer (1 mM DTT, 0.2 mM EGTA, 1 mM Pefabloc, 0.5 μM aprotinin, 5 μM leupeptin, 2 μM pepstatin, 5 μM E64, 150 mM NaCl, 1% sodium cholate, pH 8). PI3Kγ was eluted with 6 column volumes of wash buffer that contain 100 μg/mL of a peptide that competes for binding of the glu tag. The column fractions with the eluted protein (determined by taking OD280 readings) were collected and dialyzed in 0.2 mM EGTA, 1 mM DTT, 1 mM Pefabloc, 5 μM leupeptin, 0.5% sodium cholate, 150 mM NaCl, and 50% glycerol, pH 8. The fractions were stored at −80° C. until further use.
Spodtera frugiperda cells were coinfected with baculovirus expressing a glu-tagged G protein β1 and baculovirus expressing a G protein β2 at a 1:1 ratio of glu-tagged G protein β1 baculovirus to G protein β2 baculovirus. Sf9 cells are grown in 10 L bioreactors and harvested 48-72 hours post infection. Samples of infected cells were tested for G protein β1/β2 expression by Western Blot analysis, as described below. Cell lysates were homogenized and loaded onto a column of glu-tagged beads as in Biological Example 1 and competed off the column with a glu peptide and processed as described in Biological Example 1.
The inhibitory properties of the compounds in Table 1 were assayed in an in vitro PI3K assay. In a 96-well polypropylene plate, each well was spotted with 2 μL of 50 times the desired final concentration of compound in DMSO. Purified recombinant p101/p110γ protein (0.03 μg; ˜2.7 nM) and G protein β1/γ2 subunits (0.09 μg; ˜57.7 nM) for each reaction was combined in the assay buffer (30 mM HEPES, 100 mM NaCl, 1 mM EGTA, and 1 mM DTT). ATP and [γ-^32P-ATP] (0.09 μCi) were added to this mixture so that the final ATP concentration in the reaction was 20 μM. Lipid micelles were formed by sonicating phosphatidylinositol-4,5-diphosphate (PIP2), phosphatidylethanolamine (PE), and Na-cholate in the assay buffer for 10 minutes, adding MgCl2 and incubating on ice for 20 minutes, for final concentrations of 25 μM PIP2, 300 μM PE, 0.02% Na-cholate, and 10 mM MgCl2 in the reaction. The reactions were started by adding equal volumes lipid and enzyme mixture in a total volume of 50 μL, allowed to run for 20 minutes at room temperature, and stopped with 100 μL 75 mM H3PO4. The lipid product was transferred to a glass fiber filter plate and washed with 75 mM H3PO4 several times. The presence of radioactive lipid product (PIP3) was measured by adding Wallac Optiphase mix to each well and counting in a Wallac 1450 Trilux plate reader (PerkinElmer Life Sciences Inc., Boston, Mass. 02118). The IC50 for each compound tested is reported in μM in Table 1: […]

T1 sequence (P48736 whole entry, species assumed): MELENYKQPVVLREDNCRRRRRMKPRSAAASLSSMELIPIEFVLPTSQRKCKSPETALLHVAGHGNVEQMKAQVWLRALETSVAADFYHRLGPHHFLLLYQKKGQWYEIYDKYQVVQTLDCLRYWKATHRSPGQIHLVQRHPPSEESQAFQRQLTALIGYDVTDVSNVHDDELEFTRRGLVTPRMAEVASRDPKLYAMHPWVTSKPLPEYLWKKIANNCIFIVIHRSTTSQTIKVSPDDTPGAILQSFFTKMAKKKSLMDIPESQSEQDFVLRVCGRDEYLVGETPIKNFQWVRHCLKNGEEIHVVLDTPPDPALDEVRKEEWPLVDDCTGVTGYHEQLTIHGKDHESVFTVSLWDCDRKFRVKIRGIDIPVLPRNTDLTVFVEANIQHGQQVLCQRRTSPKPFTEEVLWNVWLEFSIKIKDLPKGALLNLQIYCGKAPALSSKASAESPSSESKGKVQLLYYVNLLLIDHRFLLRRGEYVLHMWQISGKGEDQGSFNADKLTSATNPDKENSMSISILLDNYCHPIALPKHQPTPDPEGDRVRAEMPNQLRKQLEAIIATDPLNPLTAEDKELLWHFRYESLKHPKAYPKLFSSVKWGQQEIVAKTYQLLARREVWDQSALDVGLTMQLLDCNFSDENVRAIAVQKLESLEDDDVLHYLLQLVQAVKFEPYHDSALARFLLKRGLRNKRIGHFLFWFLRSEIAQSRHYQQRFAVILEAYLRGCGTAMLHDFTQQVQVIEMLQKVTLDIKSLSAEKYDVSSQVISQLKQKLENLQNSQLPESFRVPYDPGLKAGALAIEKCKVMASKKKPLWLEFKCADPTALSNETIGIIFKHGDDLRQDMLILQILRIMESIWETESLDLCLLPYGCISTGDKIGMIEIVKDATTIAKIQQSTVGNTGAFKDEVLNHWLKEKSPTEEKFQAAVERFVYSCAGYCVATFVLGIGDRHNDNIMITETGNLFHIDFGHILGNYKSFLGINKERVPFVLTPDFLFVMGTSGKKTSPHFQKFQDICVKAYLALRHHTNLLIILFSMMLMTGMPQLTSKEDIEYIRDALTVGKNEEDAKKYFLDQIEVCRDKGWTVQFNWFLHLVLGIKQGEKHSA
T1 sequence (Q8WYR1 whole entry partner, species assumed): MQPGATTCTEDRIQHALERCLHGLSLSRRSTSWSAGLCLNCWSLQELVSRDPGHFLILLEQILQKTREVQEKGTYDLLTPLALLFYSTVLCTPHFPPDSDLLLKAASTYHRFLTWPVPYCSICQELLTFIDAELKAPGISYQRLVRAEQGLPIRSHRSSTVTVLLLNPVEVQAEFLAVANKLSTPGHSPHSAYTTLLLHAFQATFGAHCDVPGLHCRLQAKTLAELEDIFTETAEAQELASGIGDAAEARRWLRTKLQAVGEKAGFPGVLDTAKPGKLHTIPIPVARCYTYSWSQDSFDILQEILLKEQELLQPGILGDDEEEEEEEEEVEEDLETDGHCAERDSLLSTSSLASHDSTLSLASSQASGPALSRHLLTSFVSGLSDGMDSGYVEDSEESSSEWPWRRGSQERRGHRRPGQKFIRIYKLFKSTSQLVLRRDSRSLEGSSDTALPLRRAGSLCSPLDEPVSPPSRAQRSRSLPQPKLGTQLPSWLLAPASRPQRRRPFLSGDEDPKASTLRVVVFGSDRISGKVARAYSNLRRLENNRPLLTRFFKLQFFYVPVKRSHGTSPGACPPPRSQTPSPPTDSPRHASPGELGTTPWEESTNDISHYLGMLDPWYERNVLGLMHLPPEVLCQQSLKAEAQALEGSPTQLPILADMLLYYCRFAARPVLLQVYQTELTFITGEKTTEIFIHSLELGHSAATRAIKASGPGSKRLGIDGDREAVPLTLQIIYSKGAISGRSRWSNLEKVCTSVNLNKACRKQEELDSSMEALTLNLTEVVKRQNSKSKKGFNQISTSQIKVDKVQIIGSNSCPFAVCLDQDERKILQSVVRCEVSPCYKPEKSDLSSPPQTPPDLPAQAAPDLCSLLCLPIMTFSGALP

In the case of `COc1cc2c(Oc3cccc(C(C)(C)C)c3)c(C(=O)Nc3nn[nH]n3)sc2cc1C` [Example B.18, 3-(3-tert-Butyl-phenoxy)-5-methoxy-6-methyl-benzo[b]thiophene-2-carboxylic acid (2H-tetrazol-5-yl)-amide], the IC50 was found to be 0.029 µM.
`COc1cc2c(Oc3ccc(C(C)(C)C)cc3)c(C(=O)Nc3nn[nH]n3)sc2cc1C` [Example B.19, 3-(4-tert-Butyl-phenoxy)-5-methoxy-6-methyl-benzo[b]thiophene-2-carboxylic acid (2H-tetrazol-5-yl)-amide]: the IC50 was determined as 0.009 µM.
The same measure for `COc1cc2c(Oc3ccc(-c4ccccc4)cc3)c(C(=O)Nc3nn[nH]n3)sc2cc1C` [Example B.20, 3-(Biphenyl-4-yloxy)-5-methoxy-6-methyl-benzo[b]thiophene-2-carboxylic acid (2H-tetrazol-5-yl)-amide]: 0.077 µM.
The same measure for `COc1cc2c(Oc3ccc(OC4CCCCCC4)cc3)c(C(=O)Nc3nn[nH]n3)sc2cc1C` [Example B.21, 3-(4-Cycloheptyloxy-phenoxy)-5-methoxy-6-methyl-benzo[b]thiophene-2-carboxylic acid (2H-tetrazol-5-yl)-amide]: 0.043 µM; for `COc1cc2c(Oc3ccc(OC4CCCCC4)cc3)c(C(=O)Nc3nn[nH]n3)sc2cc1C` [Example B.22, 3-(4-Cyclohexyloxy-phenoxy)-5-methoxy-6-methyl-benzo[b]thiophene-2-carboxylic acid (2H-tetrazol-5-yl)-amide]: 0.018 µM.
The same measure for `COc1cc2c(Oc3ccc(Oc4ccccc4)cc3)c(C(=O)Nc3nn[nH]n3)sc2cc1C` [Example B.24, 5-Methoxy-6-methyl-3-(4-phenoxy-phenoxy)-benzo[b]thiophene-2-carboxylic acid (2H-tetrazol-5-yl)-amide]: 0.008 µM; for `COc1cc2c(Oc3ccc(CCSC(C)(C)C)cc3)c(C(=O)Nc3nn[nH]n3)sc2cc1C` [Example B.25, 3-[4-(2-tert-Butylsulfanyl-ethyl)-phenoxy)-5-methoxy-6-methyl-benzo[b]thiophene-2-carboxylic acid (2H-tetrazol-5-yl)-amide]: 0.025 µM.
In the case of `COc1cc2c(Oc3ccc(C4(C)CCCCC4)cc3)c(C(=O)Nc3nn[nH]n3)sc2cc1C` [Example B.26, 5-Methoxy-6-methyl-3-[4-(1-methyl-cyclohexyl)-phenoxy]-benzo[b]thiophene-2-carboxylic acid (2H-tetrazol-5-yl)-amide], the 50% inhibitory concentration (IC50) came to 0.067 µM.
The same measure for `COc1cc2c(Oc3ccc(C4(C)CCC(C)CC4)cc3)c(C(=O)Nc3nn[nH]n3)sc2cc1C` (centres unmarked) [Example B.27, 3-[4-(1,4-Dimethyl-cyclohexyl)-phenoxy]-5-methoxy-6-methyl-benzo[b]thiophene-2-carboxylic acid (2H-tetrazol-5-yl)-amide]: 0.125 µM; for `COc1cc2c(Oc3ccc(C4CCCCC4)cc3C)c(C(=O)Nc3nn[nH]n3)sc2cc1C` [Example B.28, 3-(4-Cyclohexyl-2-methyl-phenoxy)-5-methoxy-6-methyl-benzo[b]thiophene-2-carboxylic acid (2H-tetrazol-5-yl)-amide]: 0.061 µM.
The same measure for `COc1cc2c(Oc3ccc(C4CCCCC4)c(C)c3)c(C(=O)Nc3nn[nH]n3)sc2cc1C` [Example B.29, 3-(4-Cyclohexyl-3-methyl-phenoxy)-5-methoxy-6-methyl-benzo[b]thiophene-2-carboxylic acid (2H-tetrazol-5-yl)-amide]: 0.275 µM; for `COc1cc2c(Oc3ccc(C(C)c4ccccc4)cc3)c(C(=O)Nc3nn[nH]n3)sc2cc1C` (centres unmarked) [Example B.30, 5-Methoxy-6-methyl-3-[4-(1-phenyl-ethyl)-phenoxy]-benzo[b]thiophene-2-carboxylic acid (2H-tetrazol-5-yl)-amide]: 0.029 µM; for `COc1cc2c(Oc3ccc(N4CCCCC4)cc3)c(C(=O)Nc3nn[nH]n3)sc2cc1C` [Example B.31, 5-Methoxy-6-methyl-3-(4-piperidin-1-yl-phenoxy)-benzo[b]thiophene-2-carboxylic acid (2H-tetrazol-5-yl)-amide]: 0.087 µM.
With `COc1cc2c(Oc3ccc(CC4CCCC4)cc3)c(C(=O)Nc3nn[nH]n3)sc2cc1C` [Example B.32, 3-(4-Cyclopentylmethyl-phenoxy)-5-methoxy-6-methyl-benzo[b]thiophene-2-carboxylic acid (2H-tetrazol-5-yl)-amide], the IC50 came out at 0.036 µM.
The same measure for `COc1cc2c(Oc3ccc(OC4CCC4)cc3)c(C(=O)Nc3nn[nH]n3)sc2cc1C` [Example B.33, 3-(4-Cyclobutoxy-phenoxy)-5-methoxy-6-methyl-benzo[b]thiophene-2-carboxylic acid (2H-tetrazol-5-yl)-amide]: 0.007 µM.
The same measure for `COc1cc2c(Oc3cccc(OC4CCCC4)c3)c(C(=O)Nc3nn[nH]n3)sc2cc1C` [Example B.34, 3-(3-Cyclopentyloxy-phenoxy)-5-methoxy-6-methyl-benzo[b]thiophene-2-carboxylic acid (2H-tetrazol-5-yl)-amide]: 0.11 µM; for `COc1cc2c(Oc3cncnc3N3CCCCC3)c(C(=O)Nc3nn[nH]n3)sc2cc1C` [Example B.37, 5-Methoxy-6-methyl-3-(4-piperidin-1-yl-pyrimidin-5-yloxy)-benzo[b]thiophene-2-carboxylic acid (2H-tetrazol-5-yl)-amide]: 0.089 µM; for `COc1cc2c(Oc3ccc(Br)cc3)c(C(=O)Nc3nn[nH]n3)sc2cc1C` [Example B.38, 3-(4-Bromo-phenoxy)-5-methoxy-6-methyl-benzo[b]thiophene-2-carboxylic acid (2H-tetrazol-5-yl)-amide]: 0.016 µM.
The same measure for `COc1cc2c(Oc3ccc(F)cc3)c(C(=O)Nc3nn[nH]n3)sc2cc1C` [Example B.39, 3-(4-Fluoro-phenoxy)-5-methoxy-6-methyl-benzo[b]thiophene-2-carboxylic acid (2H-tetrazol-5-yl)-amide]: 0.018 µM.
For the compound `COc1cc2c(Oc3ccc(Cl)cc3F)c(C(=O)Nc3nn[nH]n3)sc2cc1C` [Example B.40, 3-(4-Chloro-2-fluoro-phenoxy)-5-methoxy-6-methyl-benzo[b]thiophene-2-carboxylic acid (2H-tetrazol-5-yl)-amide], the IC50 is 0.022 µM.
`COc1cc2c(Oc3ccc(Cl)c(F)c3)c(C(=O)Nc3nn[nH]n3)sc2cc1C` [Example B.41, 3-(4-Chloro-3-fluoro-phenoxy)-5-methoxy-6-methyl-benzo[b]thiophene-2-carboxylic acid (2H-tetrazol-5-yl)-amide]: the IC50 was 0.135 µM.
The same measure for `COc1cc2c(Oc3cccc(C(F)(F)F)c3)c(C(=O)Nc3nn[nH]n3)sc2cc1C` [Example B.42, 5-Methoxy-6-methyl-3-(3-trifluoromethyl-phenoxy)-benzo[b]thiophene-2-carboxylic acid (2H-tetrazol-5-yl)-amide]: 0.18 µM.
The same measure for `COc1cc2c(Oc3ccc([N+](=O)[O-])cc3)c(C(=O)Nc3nn[nH]n3)sc2cc1C` [Example B.43, 5-Methoxy-6-methyl-3-(4-nitro-phenoxy)-benzo[b]thiophene-2-carboxylic acid (2H-tetrazol-5-yl)-amide]: 0.056 µM.
